One may read the IC50 as the concentration needed to halve the response being measured. As a reminder, the solubility is the concentration that dissolves in the medium under given conditions. For orientation: half-life means how long it takes for the measured level to halve. The term AUC(0-inf) denotes the area under the concentration-time curve extrapolated to infinity. What is called clearance is the rate of elimination divided by the concentration. Higher therefore signals a high capacity for elimination. A word on the MRT inf: it is a mean duration of stay, worked out from the concentration-time curve. As usually defined, the Tmax is the time from dosing to the highest level. As a reminder, the bioavailability is the share of a dose that reaches the circulation, judged against a reference dose that is usually intravenous. High values mean much systemic uptake, low ones little systemic uptake. A word on the Cmax: it is the peak of the concentration-time curve.

≈ marks a conversion by molar mass, not a printed value. Calls of active or inactive are those of the source. No cut-off for these calls is given here.

One series has as its system Splenocyte. In words: Immunosuppressant activity in mouse splenocytes by mixed-leukocyte reaction assay. The format is functional, cell-based.
Series [1] in a line: Solubility of the compound in presence of 20% serum. The format is physicochemical.
The nature of series [2]: Immunosuppressant activity in chicken T-lymphocyte activated splenic lymphocytes assessed as inhibition of ConA-induced cell proliferation by [3H]thymidine incorporation assay. The format is functional. Particulars: Gallus gallus. For orientation: Incorporation of labelled thymidine or its analogues reports DNA synthesis.
Series [3] can be described thus: Immunosuppressant activity in chicken B-lymphocyte activated splenic lymphocytes assessed as inhibition of LPS-induced cell proliferation by [3H]thymidine incorporation assay. It counts as functional. The note with it: Gallus gallus.
Series [4] is described as follows: Antiproliferative activity against bone marrow-derived dendritic cells. The format is cell-based. Particulars: dendritic cell.
A short description of series [5]: Half life in BALB/c mouse at 1 mg/kg, po. It counts as ADME, organism-based. The arrangement: dose 1 mg/kg, route oral. Particulars: in vivo.
Series [6] in a line: Antiproliferative activity against B cells. It counts as cell-based. Particulars: b-cell.
Series [7] is described as follows: Antiproliferative activity against T cells. The format is cell-based. The note with it: t-cell.
The subject of the next series is B-cell. In words: Antiproliferative activity against LPS-induced B cells. The format is functional, cell-based.
Series [8] can be described thus: AUC (0 to infinity) in BALB/c mouse at 0.5 mg/kg, iv. The arrangement: time infinity, dose 0.5 mg/kg, route intravenous. The note with it: plasma. The format is ADME, organism-based.
Series [9] in a line: Clearance in BALB/c mouse at 0.5 mg/kg, iv. The format is ADME, organism-based. The arrangement: dose 0.5 mg/kg, route intravenous. The note with it: in vivo.
A short description of series [10]: Volume of distribution at steady state in BALB/c mouse at 0.5 mg/kg, iv. It counts as ADME, organism-based. The arrangement: dose 0.5 mg/kg, route intravenous. Particulars: in vivo, read-out: Vdss.
Series [11] can be described thus: Mean residence time (infinity) in BALB/c mouse at 0.5 mg/kg, iv. It counts as ADME, organism-based. Further details: dose 0.5 mg/kg, route intravenous. The note with it: in vivo.
The species entered for series [12] is Mus musculus. Nature of the series: Immunosuppressant activity in C57BL/6 mouse assessed as inhibition of zymosan A-induced arthritis. The format is functional, organism-based.
Series [13] can be described thus: Tmax in BALB/c mouse at 1 mg/kg, po. The arrangement: dose 1 mg/kg, route oral. It counts as ADME, organism-based. Particulars: in vivo.
The nature of series [14]: Oral bioavailability in BALB/c mouse at 1 mg/kg. Particulars: in vivo. The format is ADME, organism-based.
The test system of another series is T-cell. Nature of the series: Antiproliferative activity against ConA-induced T cells. It counts as functional, cell-based.
Series [15] in a line: Mean residence time (infinity) in BALB/c mouse at 1 mg/kg, po. Further details: dose 1 mg/kg, route oral. The format is ADME, organism-based. The note with it: in vivo.
The nature of series [16]: AUC (0 to infinity) in BALB/c mouse at 1 mg/kg, po. The arrangement: time infinity, dose 1 mg/kg, route oral. Particulars: plasma. It counts as ADME, organism-based.
Series [17] is filed under the species Mus musculus. In words: Immunosuppressant activity in C57BL/6 mouse assessed as inhibition of DNCB-induced cytokine release by local lymph node assay. It counts as functional, organism-based.
Another series concerns BMDM. In words: Antiproliferative activity against LPS-induced BMDM cells. The format is functional, cell-based.
Series [18] concerns Mus musculus. In words: Immunosuppressant activity in C57BL/6 mouse assessed as inhibition of carrageenan-induced paw edema. The format is functional, organism-based. (The carrageenan paw model is a standard test of acute inflammation.)
A short description of series [19]: Cmax in BALB/c mouse at 1 mg/kg, po. It counts as ADME, organism-based. The arrangement: dose 1 mg/kg, route oral. The note with it: in vivo.
Series [20] can be described thus: Antiproliferative activity against BMDM cells. The format is cell-based.
Series [21] is described as follows: Half life in BALB/c mouse at 0.5 mg/kg, iv. It counts as ADME, organism-based. The arrangement: dose 0.5 mg/kg, route intravenous. The note with it: in vivo.
The subject of another series is Dendritic cell. In words: Antiproliferative activity against LPS-induced bone marrow-derived dendritic cells. The format is functional, cell-based.
The mark [22] stands for this setting: Mus musculus, Splenocyte, read-out: IC50.

Turning to `C=CC(=C)C(=O)N[C@H]1CCc2cc(OC)c(OC)c(OC)c2-c2ccc(SC)c(=O)cc21`, in the series with Splenocyte (setting [22]), the IC50 is 112 nM.

On to `COc1cc2c(c(OC)c1OC)-c1ccc(SC)c(=O)cc1[C@H](NC(=O)C1CC1C)CC2` (stereo not given in full), for which the IC50 entry in the series with Splenocyte (splenocyte) is reported as “Not Active”.

With `COc1cc2c(c(OC)c1OC)-c1ccc(SC)c(=O)cc1[C@@H](NC(=O)c1cccc(CO[N+](=O)[O-])c1)CC2`, the solubility in [1] is 10 µM.

For `C=CCC(=O)N[C@H]1CCc2cc(OC)c(OC)c(OC)c2-c2ccc(SC)c(=O)cc21`, the 50% inhibitory concentration (IC50) with Splenocyte (setting [22]) is 702 nM.

As for `COc1cc2c(c(OC)c1OC)-c1ccc(SC)c(=O)cc1[C@@H](NC(=O)CCCO[N+](=O)[O-])CC2`, the solubility in [1] stood at 100 µM.

As for `COc1cc2c(c(OC)c1OC)-c1ccc(S(C)(=O)=O)c(=O)cc1[C@@H](NC(=O)C1CC1C)CC2` (stereo not given in full), in the series on Splenocyte (splenocyte), the IC50 entry is given as “Not Active”.

On to `COc1cc2c(c(OC)c1OC)-c1ccc(SC)c(=O)cc1[C@@H](NC(=O)C1OC1C)CC2` (mixture of isomers), for which the half-inhibitory concentration (IC50) in the series with Splenocyte (setting [22]) was found to be 119 nM.

For `COc1cc2c(c(OC)c1OC)-c1ccc(OC)c(=O)cc1[C@@H](NC(=O)C1CC1C)CC2` (stereo not given in full), in the series on Splenocyte (setting [22]), the concentration for half-maximal inhibition (IC50) worked out at 1250 nM.

As for `COc1cc2c(c(OC)c1OC)-c1cccc(=O)cc1[C@@H](NC(=O)C1CC1C)CC2` (stereo not given in full), the IC50 entry in the series on Splenocyte (splenocyte) is “Not Active”.

Regarding `COc1cc2c(c(OC)c1OC)-c1ccc(SC)c(=O)cc1[C@@H](NC(=O)C1NC1C)CC2` (stereo not given in full), the half-inhibitory concentration (IC50) in the series on Splenocyte (setting [22]) is 46 nM.

As for `C/C=C/C=C/C(=O)N[C@H]1CCc2cc(OC)c(OC)c(OC)c2-c2ccc(SC)c(=O)cc21`, the IC50 in [2] amounted to 0.0407 µg/mL (≈ 0.087 µM); in series [3] it was 0.0057 µg/mL (≈ 0.0122 µM); in the series with Splenocyte (setting [22]), 4 nM.

As to `COc1cc2c(c(OC)c1OC)-c1ccc(SC)c(=O)cc1[C@@H](NC(=O)C1CC1C)CC2` (stereo not given in full), the Activity result in series [4], in [6], in series [7] and in series [20] was “Non-toxic” each time. The half-life in series [5] and in series [21] was 2.9 h in each case. For the same molecule, the 50% inhibitory concentration (IC50) was 0.031 µg/mL (≈ 0.068 µM) in series [2], 0.0059 µg/mL (≈ 0.013 µM) in series [3] and 5 nM in the series on Splenocyte (setting [22]). In addition, the result in the series with B-cell, with T-cell, in the series with BMDM and with Dendritic cell was Active. Besides, the figures for the AUC(0-inf) in series [8] and in [16] were 200 ng·h/mL and 269 ng·h/mL, respectively. In addition, the clearance in series [9] was 41.7 mL/min/kg. For the same molecule, the Vd in [10] was 1.6 L/kg. Further, the values for the MRT inf in series [11] and in series [15] were 0.6 h and 2.2 h, respectively. Besides, the inhibition result in the series listed under Mus musculus [12] and with Mus musculus [18] was “Dose-dependent effect” in each case. The time to peak (Tmax) in series [13] was 0.25 h. The bioavailability in [14] turned out to be 67.3%. Also, the inhibition result in the series listed under Mus musculus [17] is “Active”. For the same molecule, the peak level in [19] (Cmax) was 254 ng/mL.

Turning to `C=C(C)/C=C(\CC)C(=O)N[C@H]1CCc2cc(OC)c(OC)c(OC)c2-c2ccc(SC)c(=O)cc21`, the IC50 in the series on Splenocyte (setting [22]) amounted to 31 nM.

As to `C=C(CC)C(=O)N[C@H]1CCc2cc(OC)c(OC)c(OC)c2-c2ccc(SC)c(=O)cc21`, the IC50 in the series on Splenocyte (setting [22]) was 86 nM.

For the molecule `C/C=C/CC(=O)N[C@H]1CCc2cc(OC)c(OC)c(OC)c2-c2ccc(SC)c(=O)cc21`, the IC50 in the series with Splenocyte (setting [22]) amounted to 1670 nM.

In the case of `COc1cc2c(c(OC)c1OC)-c1ccc(SC)c(=O)cc1[C@@H](NC(=O)C1C(C)N1C)CC2` (stereo not given in full), in the series on Splenocyte (setting [22]), the IC50 was 38 nM.

On to `COc1cc2c(c(OC)c1OC)-c1ccc([S+](C)[O-])c(=O)cc1[C@@H](NC(=O)C1CC1C)CC2` (stereo not given in full), for which the 50% inhibitory concentration (IC50) result in the series with Splenocyte (splenocyte) is “Not Active”.

With `COc1cc2c(c(OC)c1OC)-c1ccc(OC)c(=O)cc1[C@@H](NC(C)=O)CC2` [COLCHICINE], the solubility in series [1] came out at 300 µM.

`C/C=C/C(=O)N[C@H]1CCc2cc(OC)c(OC)c(OC)c2-c2ccc(SC)c(=O)cc21`: the half-maximal inhibitory concentration (IC50) in the series with Splenocyte (setting [22]) was found to be 67 nM.

These data come from ChEMBL document CHEMBL2163345, “Part II. Development of novel colchicine-derived immunosuppressants with improved pharmacokinetic properties” (Bioorg Med Chem Lett, 2012).
